Data as given in ChEMBL document CHEMBL1144678, “Thiahomoisocitrate: a highly potent inhibitor of homoisocitrate dehydrogenase involved in the alpha-aminoadipate pathway” (Bioorg Med Chem, 2008).

Assays:
[1] = Inhibition of Saccharomyces cerevisiae homoisocitrate dehydrogenase
[2] = tested on: Saccharomyces cerevisiae; assay: Activity of Saccharomyces cerevisiae homoisocitrate dehydrogenase

Ki [1]	Km [2]	kcat [2]	SMILES
12 µM	–	–	O=C(O)CSCC(=O)C(=O)O
0.097 µM	–	–	O=C(O)CS[C@H](C(=O)O)[C@@H](O)C(=O)O
10 µM	20 µM	0.59 s⁻¹	O=C(O)CO[C@H](C(=O)O)[C@@H](O)C(=O)O
–	150 µM	2 s⁻¹	O=C(O)CN[C@H](C(=O)O)[C@@H](O)C(=O)O
